Test results from patent US11077115B2, “Rorgamma modulators and uses thereof” (Genfit, priority 2017, dated 2021).
Counter-ions that a name gives are not always drawn.

Test system: not given
Experiment: not given
Conditions: not given

SMILES | melting point
Cc1ccc(C(NC(=O)C2(c3cnc(N4CCS(=O)(=O)CC4)nc3)CC2)c2ccc(C)o2)c(C)c1 (stereo not drawn) (as salt: HCl) [Cpd. 48, N-[(2,4-dimethylphenyl)(5-methylfuran-2-yl)methyl]-1-[2-(1,1-dioxo-1-thiomorpholin-4-yl)pyrimidin-5-yl]cyclopropane-1-carboxamide] | 82 °C
Cc1ccc(C(NC(=O)Cc2cnc(N3CCS(=O)(=O)CC3)nc2)c2ccc(Cl)cc2Cl)o1 (stereo not drawn) (as salt: HCl) [Cpd. 50, N-[(2,4-dichlorophenyl)(5-methylfuran-2-yl)methyl]-2-[2-(1,1-dioxo-1-thiomorpholin-4-yl)pyrimidin-5-yl]acetamide] | 215 °C
Cc1ccc(C(NC(=O)Cc2cnc(N3CCS(=O)(=O)CC3)nc2)c2ccc(C)o2)c(Cl)c1 (stereo not drawn) (as salt: HCl) [Cpd. 51, N-[(2-chloro-4-methylphenyl)(5-methylfuran-2-yl)methyl]-2-[2-(1,1-dioxo-1-thiomorpholin-4-yl)pyrimidin-5-yl]acetamide] | 208 °C
Cc1ccc(C(NC(=O)C2(c3cnc(N4CCS(=O)(=O)CC4)nc3)CC2)c2ccc(C)o2)c(Cl)c1 (stereo not drawn) (as salt: HCl) [Cpd. 52, N-[(2-chloro-4-methylphenyl)(5-methylfuran-2-yl)methyl]-1-[2-(1,1-dioxo-1-thiomorpholin-4-yl)pyrimidin-5-yl]cyclopropane-1-carboxamide] | 98 °C
Cc1ccc(C(NC(=O)C2(c3cnc(N4CCS(=O)(=O)CC4)nc3)CC2)c2ccc(Cl)cc2C)o1 (stereo not drawn) (as salt: HCl) [Cpd. 53, N-[(4-chloro-2-methylphenyl)(5-methylfuran-2-yl)methyl]-1-[2-(1,1-dioxo-1-thiomorpholin-4-yl)pyrimidin-5-yl]cyclopropane-1-carboxamide] | 162 °C
Cc1ccc(C(NC(=O)C2(c3cnc(N4CCS(=O)(=O)CC4)nc3)CC2)c2ccc(Cl)cc2Cl)o1 (stereo not drawn) (as salt: HCl) [Cpd. 54, N-[(2,4-dichlorophenyl)(5-methylfuran-2-yl)methyl]-1-[2-(1,1-dioxo-1-thiomorpholin-4-yl)pyrimidin-5-yl]cyclopropane-1-carboxamide] | 145 °C
Cc1ccc(C(NC(=O)C2(c3ccc(N4CCS(=O)(=O)CC4)cc3)CCC2)c2ccc(C)o2)c(N2CCCCC2)c1 (stereo not drawn) (as salt: HCl) [Cpd. 55, 1-[4-(1,1-dioxo-1-thiomorpholin-4-yl)phenyl]-N-{[4-methyl-2-(piperidin-1-yl)phenyl](5-methylfuran-2-yl)methyl}cyclobutane-1-carboxamide] | 87 °C
COc1ccc(C(NC(=O)C2(c3cnc(N4CCS(=O)(=O)CC4)nc3)CC2)c2ccc(C)o2)c(C)c1 (stereo not drawn) (as salt: HCl) [Cpd. 57, 1-[2-(1,1-dioxo-1-thiomorpholin-4-yl)pyrimidin-5-yl]-N-[(4-methoxy-2-methylphenyl)(5-methylfuran-2-yl)methyl]cyclopropane-1-carboxamide] | 101 °C
Cc1ccc(C(NC(=O)Cc2ccc(N3CCS(=O)(=O)CC3)c(O)c2)c2ccc(C)o2)c(N2CCCCC2)c1 (stereo not drawn) (as salt: HCl) [Cpd. 61, 2-[4-(1,1-dioxo-1-thiomorpholin-4-yl)-3-hydroxyphenyl]-N-{[4-methyl-2-(piperidin-1-yl)phenyl](5-methylfuran-2-yl)methyl}acetamide] | 105 °C
COCc1ccc(CC(=O)NC(c2ccc(C)o2)c2ccc(C)cc2N2CCCCC2)cc1N1CCS(=O)(=O)CC1 (stereo not drawn) (as salt: HCl) [Cpd. 62, 2-[3-(1,1-dioxo-1-thiomorpholin-4-yl)-4-(methoxymethyl)phenyl]-N-{[4-methyl-2-(piperidin-1-yl)phenyl](5-methylfuran-2-yl)methyl}acetamide] | 87 °C
Cc1ccc(C(NC(=O)Cc2ccc(CO)c(N3CCS(=O)(=O)CC3)c2)c2ccc(C)o2)c(N2CCCCC2)c1 (stereo not drawn) (as salt: HCl) [Cpd. 63, 2-[3-(1,1-dioxo-1-thiomorpholin-4-yl)-4-(hydroxymethyl)phenyl]-N-{[4-methyl-2-(piperidin-1-yl)phenyl](5-methylfuran-2-yl)methyl}acetamide] | 100 °C
Cc1ccc(C(NC(=O)Cc2ncc(N3CCS(=O)(=O)CC3)cn2)c2ccc(C)o2)c(N2CCCCC2)c1 (stereo not drawn) (as salt: HCl) [Cpd. 65, 2-[5-(1,1-dioxo-1-thiomorpholin-4-yl)pyrimidin-2-yl]-N-{[4-methyl-2-(piperidin-1-yl)phenyl](5-methylfuran-2-yl)methyl}acetamide] | 99 °C
Cc1ccc(C(NC(=O)C2(c3ccc(N4CCS(=O)(=O)CC4)cc3)CC2)c2ccc(Cl)o2)c(C)c1 (stereo not drawn) (as salt: HCl) [Cpd. 66, N-[(5-chlorofuran-2-yl)(2,4-dimethylphenyl)methyl]-1-[4-(1,1-dioxo-1-thiomorpholin-4-yl)phenyl]cyclopropane-1-carboxamide] | 76 °C
Cc1ccc(C(NC(=O)C2(c3ccc(N4CCS(=O)(=O)CC4)cc3)CC2)c2ccc(Cl)o2)cc1 (stereo not drawn) (as salt: HCl) [Cpd. 67, N-[(5-chlorofuran-2-yl)(4-methylphenyl)methyl]-1-[4-(1,1-dioxo-1-thiomorpholin-4-yl)phenyl]cyclopropane-1-carboxamide] | 157 °C
Cc1ccc(C(NC(=O)C2(c3cccc(N4CCS(=O)(=O)CC4)c3)CC2)c2ccc(C)o2)c(C)c1 (stereo not drawn) (as salt: HCl) [Cpd. 68, N-[(2,4-dimethylphenyl)(5-methylfuran-2-yl)methyl]-1-[3-(1,1-dioxo-1-thiomorpholin-4-yl)phenyl]cyclopropane-1-carboxamide] | 72 °C
COc1ccc(C2(C(=O)NC(c3ccc(C)o3)c3ccc(C)cc3C)CC2)cc1N1CCS(=O)(=O)CC1 (stereo not drawn) (as salt: HCl) [Cpd. 69, N-[(2,4-dimethylphenyl)(5-methylfuran-2-yl)methyl]-1-[3-(1,1-dioxo-1-thiomorpholin-4-yl)-4-methoxyphenyl]cyclopropane-1-carboxamide] | 174 °C
Cc1ccc(C(NC(=O)C2(c3cc(N4CCS(=O)(=O)CC4)ccc3C)CC2)c2ccc(C)o2)c(C)c1 (stereo not drawn) (as salt: HCl) [Cpd. 70, N-[(2,4-dimethylphenyl)(5-methylfuran-2-yl)methyl]-1-[5-(1,1-dioxo-1-thiomorpholin-4-yl)-2-methylphenyl]cyclopropane-1-carboxamide] | 86 °C
Cc1ccc(C(NC(=O)C2(c3ccc(N4CCS(=O)(=O)CC4)c(C)n3)CC2)c2ccc(C)o2)c(C)c1 (stereo not drawn) (as salt: HCl) [Cpd. 71, N-[(2,4-dimethylphenyl)(5-methylfuran-2-yl)methyl]-1-[5-(1,1-dioxo-1-thiomorpholin-4-yl)-6-methylpyridin-2-yl]cyclopropane-1-carboxamide] | 74 °C
Cc1ccc(C(NC(=O)C2(c3ncc(N4CCS(=O)(=O)CC4)cc3C)CC2)c2ccc(C)o2)c(C)c1 (stereo not drawn) (as salt: HCl) [Cpd. 72, N-[(2,4-dimethylphenyl)(5-methylfuran-2-yl)methyl]-1-[5-(1,1-dioxo-1-thiomorpholin-4-yl)-3-methylpyridin-2-yl]cyclopropane-1-carboxamide] | 87 °C
Cc1ccc(C(NC(=O)C2(c3ccc(N4CCS(=O)(=O)CC4)cn3)CC2)c2ccc(C)o2)c(C)c1 (stereo not drawn) (as salt: HCl) [Cpd. 73, N-[(2,4-dimethylphenyl)(5-methylfuran-2-yl)methyl]-1-[5-(1,1-dioxo-1-thiomorpholin-4-yl)pyridin-2-yl]cyclopropane-1-carboxamide] | 71 °C

Molecular target: T1, RORγt ligand-binding domain (RORγt-LBD) (Homo sapiens, UniProt P51449)
T1 construct: 20 nM recombinantly expressed RORγ-LBD fused to GST
T1 sequence (P51449 269-508 limits assumed): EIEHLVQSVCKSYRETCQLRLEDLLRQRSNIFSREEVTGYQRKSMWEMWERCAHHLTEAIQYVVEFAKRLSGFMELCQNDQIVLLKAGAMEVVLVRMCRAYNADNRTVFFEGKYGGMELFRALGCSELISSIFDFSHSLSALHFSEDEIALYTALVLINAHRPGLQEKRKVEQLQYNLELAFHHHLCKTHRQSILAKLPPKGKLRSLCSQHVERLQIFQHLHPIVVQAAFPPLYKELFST
Experiment: Time-resolved FRET (TR-FRET) RORγt coactivator assay (RIP140 peptide displacement)
Format: biochemical
Conditions: ligand-dependent coactivator-RORγt binding
Excerpt: Time-resolved FRET (TR-FRET) RORγt coactivator assay was used to identify RORγ modulator compounds with ligand-dependent coactivator displacement. The assay uses a d2-labeled anti-GST antibody, synthetic N-terminally biotinylated peptide which is derived from nuclear receptor coactivator protein RIP140, and a RORγt ligand-binding domain (RORγt-LBD) that is tagged with glutathione-S-transferase (GST). The influence of compounds on the RORγ-peptide interaction relies on the binding dependent energy transfer from a donor to an acceptor fluorophor attached to the binding partner of interest. […] For reduction of background from compound fluorescence, TR-FRET method makes use of generic fluorophore labels and time resolved detection.
The assays were done in a final volume of 20 μl in a 384 well plate in a CHAPS buffer (2 mM CHAPS; 1 mM DTT, 2 mM EDTA; 0.1% BSA), containing 20 nM recombinantly expressed RORγ-LBD fused to GST, 30 nM N-terminally biotinylated peptide, 1 nM streptavidin-terbium conjugate and 20 nM d2 labeled-anti-GST. Test compounds were diluted using 10 mM stock solution. The range of the final compound concentrations used in this test was from 0.3 nM to 30 μM (logarithmic scale). DMSO content of the samples was kept at 1%. The assay was equilibrated for 2 hours in the dark at room temperature in 384 well plates (Falcon). The signal was detected by an Ultra384 reader (TECAN). […] Compounds that promote coactivator displacement induce a concentration-dependent decrease in time-resolved fluorescent signal. Data were collected and analyzed using GraphPad Prism software (GraphPad Software V5.02, San Diego Calif. USA). IC50 in μM and E max in % were reported for each compound.

SMILES | IC50
Cc1ccc(C(NC(=O)Cc2cnc(N3CCS(=O)(=O)CC3)nc2)c2ccc(C)o2)c(Cl)c1 (stereo not drawn) [Cpd. 51, N-[(2-chloro-4-methylphenyl)(5-methylfuran-2-yl)methyl]-2-[2-(1,1-dioxo-1-thiomorpholin-4-yl)pyrimidin-5-yl]acetamide] | 1 to 10 µM
